One block for each compound: values may come before it.
How the values were obtained:
Rhodesain [1] = target: T1, Rhodesain (Trypanosoma brucei rhodesiense, UniProt Q95PM0); assay: Inhibition of Trypanosoma brucei rhodesiense rhodesain expressed in Pichia pastoris measured for 30 mins using Cbz-Phe-Arg-AMC as substrate
Trypanosoma cruzi [2] = assay: Antitrypanosomal activity against Trypanosoma cruzi assessed as reduction in parasite growth; format: functional, organism-based
Rhodesain [3] = target: T1, Rhodesain; assay: Inhibition of Trypanosoma brucei rhodesiense rhodesain
Trypanosoma cruzi [4] = assay: Antitrypanosomal activity against Trypanosoma cruzi; format: functional, organism-based
Cathepsin S = Cathepsin S (Homo sapiens, UniProt P25774); assay: Binding affinity to Cathepsin S (unknown origin) assessed as inhibition constant measured after 22 hrs
Chain of Cathepsin S (P25774 whole entry): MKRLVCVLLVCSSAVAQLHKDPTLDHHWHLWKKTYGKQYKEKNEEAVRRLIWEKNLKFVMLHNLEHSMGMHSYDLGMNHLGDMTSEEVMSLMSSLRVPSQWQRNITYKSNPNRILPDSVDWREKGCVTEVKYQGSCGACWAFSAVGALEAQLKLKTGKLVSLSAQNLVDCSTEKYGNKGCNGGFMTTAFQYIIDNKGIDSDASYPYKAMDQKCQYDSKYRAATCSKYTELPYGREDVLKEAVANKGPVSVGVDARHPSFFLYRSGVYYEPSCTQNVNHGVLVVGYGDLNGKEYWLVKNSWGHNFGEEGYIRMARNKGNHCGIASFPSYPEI

Cruzipain [5] = target: T2, Cruzipain (Trypanosoma cruzi, UniProt P25779); assay: Binding affinity to Trypanosoma cruzi Cruzain assessed as inhibition constant
T2 sequence (P25779 whole entry): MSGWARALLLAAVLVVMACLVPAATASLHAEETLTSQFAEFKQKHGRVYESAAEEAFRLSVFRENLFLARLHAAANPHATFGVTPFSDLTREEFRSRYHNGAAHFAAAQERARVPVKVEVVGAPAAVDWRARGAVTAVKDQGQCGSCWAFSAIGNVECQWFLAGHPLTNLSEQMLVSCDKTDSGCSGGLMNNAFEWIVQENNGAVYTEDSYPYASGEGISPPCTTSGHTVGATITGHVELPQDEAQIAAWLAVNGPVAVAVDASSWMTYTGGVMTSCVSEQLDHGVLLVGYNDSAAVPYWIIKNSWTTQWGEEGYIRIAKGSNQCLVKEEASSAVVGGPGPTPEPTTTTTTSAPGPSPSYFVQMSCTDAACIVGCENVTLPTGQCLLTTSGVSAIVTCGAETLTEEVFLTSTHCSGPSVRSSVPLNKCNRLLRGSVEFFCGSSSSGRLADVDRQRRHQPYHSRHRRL

[6] = tested on: Trypanosoma brucei brucei; assay: Antitrypanosomal activity against Trypanosoma brucei brucei assessed as parasite growth inhibition; format: functional, organism-based
Trypanosoma brucei = assay: Antitrypanosomal activity against Trypanosoma brucei assessed as parasite growth inhibition; format: functional, organism-based
Cruzipain [7] = target: T2, Cruzipain; assay: Inhibition of Trypanosoma cruzi Cruzain
[8] = Lipophilicity, logP of compound; format: physicochemical; details: octanol/water
Trypanosoma cruzi [9] = assay: Antitrypanosomal activity against Trypanosoma cruzi assessed as inhibition of growth incubated for 4 days by resazurin dye based assay; format: functional, organism-based; details: 96 h

T1 sequence (Q95PM0 whole entry): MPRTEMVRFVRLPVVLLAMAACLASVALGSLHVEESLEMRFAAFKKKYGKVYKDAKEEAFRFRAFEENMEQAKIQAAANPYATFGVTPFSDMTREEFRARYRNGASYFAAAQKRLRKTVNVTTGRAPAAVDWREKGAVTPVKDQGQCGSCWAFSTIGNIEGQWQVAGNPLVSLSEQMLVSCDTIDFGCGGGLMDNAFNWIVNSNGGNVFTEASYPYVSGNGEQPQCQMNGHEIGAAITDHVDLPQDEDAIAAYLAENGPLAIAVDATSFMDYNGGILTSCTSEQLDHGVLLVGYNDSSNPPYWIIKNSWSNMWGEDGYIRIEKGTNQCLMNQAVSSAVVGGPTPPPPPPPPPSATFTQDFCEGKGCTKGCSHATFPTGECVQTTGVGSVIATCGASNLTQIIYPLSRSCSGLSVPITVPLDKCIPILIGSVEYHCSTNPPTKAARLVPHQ

- Ki (Rhodesain [1]): 6 nM
Compound: Cc1nc(-c2ccccc2)sc1C(=O)N[C@H](/C=C/S(=O)(=O)c1ccccc1)CCc1ccccc1

Compound: Clc1ccc2c(NCCN3CCOCC3)ccnc2c1
- IC50 (Trypanosoma cruzi [2]): > 250000 nM
- IC50 (Rhodesain [3]): 61000 nM

- IC50 (Trypanosoma cruzi [2]): > 250000 nM
Compound: OCCN1CCN(c2ccnc3cc(Cl)ccc23)CC1

- EC50 (Trypanosoma cruzi [4]): 1300 nM
Compound: Cc1nn(C)c2cc(N3CCN(C(=O)[C@@H]4CCCC[C@H]4C(=O)NC4(C#N)CC4)[C@H](C)C3)ccc12

- IC50 (Trypanosoma cruzi [2]): > 250000 nM
Compound: NCCCNc1ccnc2cc(Cl)ccc12

Compound: OCCNc1ccnc2cc(Cl)ccc12
- IC50 (Trypanosoma cruzi [2]): > 250000 nM
- IC50 (Rhodesain [3]): 58000 nM

- Ki (Cathepsin S): 360 nM
Compound: O=C(COc1ccccc1F)NCCc1nc2ccccc2[nH]1

- Ki (Cathepsin S): 48 nM
Compound: O=C(COc1ccccc1I)NCCc1nc2ccccc2[nH]1

- Ki (Cathepsin S): 220 nM
Compound: N#Cc1ccccc1OCC(=O)NCCc1nc2ccccc2[nH]1

- Ki (Cruzipain [5]): 80 nM
Compound: O=C(COc1ccc2ccccc2c1Br)NCCc1nc2ccccc2[nH]1

Compound: O=C(CNc1ccnc2cc(Cl)ccc12)N1CCOCC1
- IC50 (Trypanosoma cruzi [2]): > 250000 nM
- IC50 (Rhodesain [3]): 48000 nM

Compound: CCOC(=O)/C=C/[C@@H](O)[C@H](CCc1ccccc1)NC(=O)[C@H](Cc1ccccc1)NC(=O)OCc1ccccc1
- IC50 (Rhodesain [3]): 20000 nM

Compound: CCCNc1ccnc2cc(Cl)ccc12
- IC50 (Rhodesain [3]): 34200 nM

- EC50 (Trypanosoma cruzi [4]): 120 nM
Compound: N#CC1(NC(=O)[C@H](Cc2ccccc2)N[C@H](c2ccccc2)C(F)(F)F)CC1

Compound: OCCCNc1ccnc2cc(Cl)ccc12
- IC50 (Trypanosoma cruzi [2]): 6500 nM
- IC50 (Rhodesain [3]): 72000 nM

- EC50 [6]: 1180 nM
Compound: O=C(N[C@@H](Cc1ccccc1)C(=O)N[C@H](/C=C/S(=O)(=O)c1ccccc1)CCCCNS(=O)(=O)c1ccc2ccccc2c1)OCc1ccccc1

- EC50 (Trypanosoma brucei): 180 nM
Compound: CCCCn1cnc2c(Cc3ccc(Cl)c(Cl)c3)nc(C#N)nc21

- EC50 [6]: 1880 nM
Compound: O=C(N[C@@H](Cc1ccccc1)C(=O)N[C@H](/C=C/S(=O)(=O)c1ccccc1)CCCCn1nnc2ccccc21)OCc1ccccc1

- EC50 (Trypanosoma brucei): 390 nM
Compound: CCCCn1cnc2c(Cc3ccc(OC)cc3)nc(C#N)nc21

- EC50 (Trypanosoma brucei): 240 nM
Compound: N#Cc1nc(Cc2ccccc2)c2ncn(CC3CCCCO3)c2n1 (stereo not given)

Compound: CCOC(=O)/C=C\C(=O)[C@H](CC(C)C)NC(=O)[C@H](Cc1ccccc1)NC(=O)OCc1ccccc1
- IC50 (Rhodesain [3]): 16.4 nM

- IC50 (Trypanosoma cruzi [2]): 34600 nM
- IC50 (Cruzipain [7]): 77500 nM
Compound: O=C(COCc1ccccc1Br)NCCc1nc2ccccc2[nH]1

- EC50 [6]: 1220 nM
Compound: CCCCCCS(=O)(=O)NCCCC[C@@H](/C=C/S(=O)(=O)c1ccccc1)NC(=O)[C@H](Cc1ccccc1)NC(=O)OCc1ccccc1

- EC50 (Trypanosoma brucei): 270 nM
Compound: CCCCn1cnc2c(Cc3cccc(C)c3)nc(C#N)nc21

- EC50 (Trypanosoma brucei): 260 nM
Compound: N#Cc1nc(Cc2ccccc2)c2ncn(Cc3cccc(C(F)(F)F)c3)c2n1

- EC50 (Trypanosoma brucei): 110 nM
Compound: N#Cc1nc(Cc2ccc(Cl)c(Cl)c2)c2ncn(CCCO)c2n1

- Ki (Cruzipain [5]): 251 nM
Compound: N#CCNC(=O)[C@H](Cc1ccccc1)NC(=O)c1cc(Br)ccn1

- EC50 (Trypanosoma brucei): 220 nM
Compound: COC(CCn1cnc2c(Cc3ccc(Cl)c(Cl)c3)nc(C#N)nc21)OC

- EC50 (Trypanosoma brucei): 310 nM
Compound: N#Cc1nc(Cc2ccc(Cl)cc2)c2ncn(CCCO)c2n1

Compound: Clc1ccc2c(NCc3ccccc3)ccnc2c1
- IC50 (Rhodesain [3]): 34000 nM

- EC50 (Trypanosoma brucei): 270 nM
Compound: COc1ccc(Cn2cnc3c(Cc4ccc(Cl)cc4)nc(C#N)nc32)cc1

- EC50 (Trypanosoma brucei): 260 nM
Compound: N#Cc1nc(Cc2ccc(Cl)c(Cl)c2)c2ncn(Cc3ccccc3)c2n1

- EC50 (Trypanosoma brucei): 150 nM
Compound: COCCCn1cnc2c(Cc3ccc(Cl)c(Cl)c3)nc(C#N)nc21

- EC50 (Trypanosoma brucei): 330 nM
Compound: N#Cc1nc(C2CCCCC2)c2ncn(Cc3ccccc3)c2n1

- EC50 (Trypanosoma brucei): 340 nM
Compound: N#Cc1nc(Cc2ccc(Cl)cc2)c2ncn(Cc3cccc(C(F)(F)F)c3)c2n1

- EC50 (Trypanosoma brucei): 60 nM
Compound: N#Cc1nc(Cc2ccc(Cl)c(Cl)c2)c2ncn(CCCCCO)c2n1

- IC50 (Cruzipain [7]): 2500 nM
Compound: Clc1ccc2[nH]c3c(NCCCN4CCOCC4)ncnc3c2c1

- logP [8]: 5.8
Compound: CCCCC(C(=O)COc1c(F)c(F)cc(F)c1F)n1cc([C@@](C)(NCc2ccc3ncccc3c2)C(C)C)nn1 (stereo not given in full)

Compound: NCCNc1ccnc2cc(Cl)ccc12
- IC50 (Rhodesain [3]): 126000 nM

- EC50 (Trypanosoma cruzi [9]): 2510 nM
Compound: CC(C)(F)C[C@H](N[C@@H](c1ccc(-c2ccc(S(C)(=O)=O)cc2)cc1)C(F)(F)F)C(=O)NC1(C#N)CC1 [ODANACATIB]

Reference: ChEMBL document CHEMBL5244221, “Synthesis and structure-activity relationship studies of cruzain and rhodesain inhibitors” (Eur J Med Chem, 2018)
